In patent publication US12630600B2 (MEDIMMUNE LIMITED, priority 2022, dated 2026):
Starred links: 1 amine or outer side, 2 acyl side, 3 side chain; linkers in the order of their positions; H or OH if unused. Non-standard residues stand in square brackets, D forms with d. Residues, ends and D or L forms follow the SMILES beside them. Groups on a side chain read outwards from the residue. *: point of attachment. C20 diacid = O=C(O)CCCCCCCCCCCCCCCCCCC(=O)*; C18 diacid = O=C(O)CCCCCCCCCCCCCCCCC(=O)*; γGlu = O=C(O)[C@H](CCC(=O)[*:2])N[*:1]; αMeF = C[C@](N)(Cc1ccccc1)C(=O)O; PEG2 = NCCOCCOCCC(=O)O; AEEA = NCCOCCOCC(=O)O; Aib = CC(C)(N)C(=O)O

Target: T1, human GLP-1 receptor (hGLP-1R) (Homo sapiens, UniProt P43220)
T1 construct: expressed in transfected cells; host or cells: CHO
T1 sequence (P43220 24-463): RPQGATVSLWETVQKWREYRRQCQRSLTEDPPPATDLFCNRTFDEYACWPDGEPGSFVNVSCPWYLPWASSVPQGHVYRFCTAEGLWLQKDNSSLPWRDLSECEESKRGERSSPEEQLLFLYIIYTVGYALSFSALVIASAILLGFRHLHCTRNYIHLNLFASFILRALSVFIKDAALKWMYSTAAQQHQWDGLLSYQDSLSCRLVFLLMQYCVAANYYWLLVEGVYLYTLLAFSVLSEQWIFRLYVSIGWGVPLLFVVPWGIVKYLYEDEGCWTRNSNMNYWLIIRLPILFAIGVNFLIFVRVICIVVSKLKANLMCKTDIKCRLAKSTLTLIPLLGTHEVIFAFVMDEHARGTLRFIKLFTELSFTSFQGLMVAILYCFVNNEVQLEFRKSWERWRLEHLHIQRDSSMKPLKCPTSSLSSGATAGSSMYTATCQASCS
Experiment: cAMP production (HTRF) in CHO cells expressing human GLP-1 receptor
Type: cell-based
Settings: % GLP-1R activity relative to GLP-1 / % GlucR activity relative to glucagon
Description: Cells were re-suspended in assay buffer at a batch-dependent optimized concentration (typically hGLP-1R cells at 1×10^5 cells/mL, hGCGR cells at 2×10^5 cells/mL).
Cells were added to the assay plate using a multidrop dispenser and incubated at room temperature for 30 minutes before measuring the cAMP level using a cAMP dynamic 2 homogeneous time resolved Fluorescence (HTRF) kit (Cisbio Bioassays #62AM4PEJ) following the two-step protocol as per manufacturer's recommendations. In brief, anti-cAMP cryptate (donor fluorophore) and cAMP-d2 (acceptor fluorophore) were made up separately by diluting each 1 in 20 in conjugate and lysis buffer provided in the kit. Anti-cAMP cryptate was added to all wells of the assay plate, followed by cAMP-d2 added to all wells except non-specific binding (NSB) wells (to which conjugate and lysis buffer was added).
Data was transformed to % Delta F as described in the manufacturer's guidelines and analyzed by 4-parameter logistic fit to determine EC50 values.

Row | Compound | % Relative Potency Ratio (Table 8) | also measured
1 | CC[C@H](C)[C@H](NC(=O)[C@H](CO)NC(=O)[C@H](CCCCNC(=O)COCCOCCNC(=O)COCCOCCNC(=O)CC[C@H](NC(=O)CC[C@H](NC(=O)CCCCCCCCCCCCCCCCC(=O)O)C(=O)O)C(=O)O)NC(=O)[C@@H](NC(=O)[C@](C)(Cc1ccccc1)NC(=O)[C@H](CC(=O)O)NC(=O)[C@H](CCC(N)=O)NC(=O)[C@H](C)NC(=O)[C@H](C)NC(=O)[C@H](CCCNC(=N)N)NC(=O)[C@H](CO)NC(=O)[C@H](CC(=O)O)NC(=O)[C@H](CC(C)C)NC(=O)[C@](C)(Cc1ccccc1)NC(=O)[C@H](CCCCN)NC(=O)[C@H](CO)NC(=O)[C@@H](NC(=O)[C@H](CC(=O)O)NC(=O)[C@H](CO)NC(=O)[C@@H](NC(=O)[C@](C)(Cc1ccccc1)NC(=O)[C@H](CO)NC(=O)CNC(=O)[C@H](Cc1c[nH]cn1)NC(=O)C(C)(C)NC(=O)[C@@H](N)Cc1c[nH]cn1)[C@@H](C)O)C(C)C)C(C)C)C(=O)N[C@@H](C)C(=O)N[C@@H](CC(N)=O)C(=O)N[C@H](C(N)=O)[C@@H](C)O [Peptide 378] (H-H[Aib]HGS[αMeF]TSDVSK[αMeF]LDSRAAQD[αMeF]VK([AEEA-AEEA-γGlu-γGlu-C18 diacid])SIANT-NH2; N-terminus assumed) | 2.0 | –
2 | CC[C@H](C)[C@H](NC(=O)C(C)(C)NC(=O)[C@H](CCCCNC(=O)COCCOCCNC(=O)COCCOCCNC(=O)CC[C@H](NC(=O)CC[C@H](NC(=O)CCCCCCCCCCCCCCCCC(=O)O)C(=O)O)C(=O)O)NC(=O)[C@@H](NC(=O)[C@](C)(Cc1ccccc1)NC(=O)[C@H](CC(=O)O)NC(=O)[C@H](CCC(N)=O)NC(=O)[C@H](C)NC(=O)[C@H](C)NC(=O)[C@H](CCCNC(=N)N)NC(=O)[C@H](CO)NC(=O)[C@H](CC(=O)O)NC(=O)[C@H](CC(C)C)NC(=O)[C@](C)(Cc1ccccc1)NC(=O)[C@H](CCCCN)NC(=O)[C@H](CO)NC(=O)[C@@H](NC(=O)[C@H](CC(=O)O)NC(=O)[C@H](CO)NC(=O)[C@@H](NC(=O)[C@](C)(Cc1ccccc1)NC(=O)[C@H](CO)NC(=O)CNC(=O)[C@H](Cc1c[nH]cn1)NC(=O)C(C)(C)NC(=O)[C@@H](N)Cc1c[nH]cn1)[C@@H](C)O)C(C)C)C(C)C)C(=O)N[C@@H](C)C(=O)N[C@@H](CC(N)=O)C(=O)N[C@H](C(=O)NCC(=O)NCC(N)=O)[C@@H](C)O [Peptide 373] (H-H[Aib]HGS[αMeF]TSDVSK[αMeF]LDSRAAQD[αMeF]VK([AEEA-AEEA-γGlu-γGlu-C18 diacid])[Aib]IANTGG-NH2; N-terminus assumed) | 7.2 | –
3 | HSQGS(αMePhe)TSDK((PEG)2-(PEG)2-γE-γE-Stearoyl)10SK(Dip)LDS(ß-dimethylArg)AAQD(αMePhe)VE(Aib)LANT-amide [Peptide 393] | – | % Relative Potency Ratio (Table 9): 9.3
4 | CC[C@H](C)[C@H](NC(=O)[C@H](Cc1c[nH]c2ccccc12)NC(=O)[C@H](CCCCNC(=O)COCCOCCNC(=O)COCCOCCNC(=O)CC[C@H](NC(=O)CCCCCCCCCCCCCCCCCCC(=O)O)C(=O)O)NC(=O)[C@@H](NC(=O)[C@H](Cc1ccccc1)NC(=O)[C@H](CC(=O)O)NC(=O)[C@H](CCC(N)=O)NC(=O)[C@H](C)NC(=O)C(C)(C)NC(=O)[C@H](CCCNC(=N)N)NC(=O)[C@H](CO)NC(=O)[C@H](CC(=O)O)NC(=O)[C@H](CC(C)C)NC(=O)[C@](C)(Cc1ccccc1)NC(=O)[C@H](CCCCN)NC(=O)[C@H](CO)NC(=O)[C@@H](NC(=O)[C@H](CC(=O)O)NC(=O)[C@H](CO)NC(=O)[C@@H](NC(=O)[C@](C)(Cc1ccccc1)NC(=O)[C@H](CO)NC(=O)CNC(=O)[C@H](Cc1c[nH]cn1)NC(=O)C(C)(C)NC(=O)[C@@H](N)Cc1c[nH]cn1)[C@@H](C)O)C(C)C)C(C)C)C(=O)N[C@@H](C)C(=O)N[C@@H](CC(N)=O)C(=O)N[C@H](C(N)=O)[C@@H](C)O [Peptide 368, H(Aib)HGS(αMePhe)TSDVSK(αMePhe)LDSR(Aib)AQDFVK(O2OC-O2OC-γE-C20diacid)24WIANT-amide] (H-H[Aib]HGS[αMeF]TSDVSK[αMeF]LDSR[Aib]AQDFVK([AEEA-AEEA-γGlu-C20 diacid])WIANT-NH2; N-terminus assumed) | 3.1 | –
5 | CC[C@H](C)[C@H](NC(=O)C(C)(C)NC(=O)[C@H](CCCCNC(=O)COCCOCCNC(=O)COCCOCCNC(=O)CC[C@H](NC(=O)CCCCCCCCCCCCCCCCC(=O)O)C(=O)O)NC(=O)[C@@H](NC(=O)[C@](C)(Cc1ccccc1)NC(=O)[C@H](CC(=O)O)NC(=O)[C@H](CCC(N)=O)NC(=O)[C@H](C)NC(=O)[C@H](C)NC(=O)[C@H](CCC(N)=O)NC(=O)[C@H](CO)NC(=O)[C@H](CC(=O)O)NC(=O)[C@H](CC(C)C)NC(=O)[C@](C)(Cc1ccccc1)NC(=O)[C@H](CCCCN)NC(=O)[C@H](CO)NC(=O)[C@@H](NC(=O)[C@H](CC(=O)O)NC(=O)[C@H](CO)NC(=O)[C@@H](NC(=O)[C@](C)(Cc1ccccc1)NC(=O)[C@H](CO)NC(=O)CNC(=O)[C@H](Cc1c[nH]cn1)NC(=O)C(C)(C)NC(=O)[C@@H](N)Cc1c[nH]cn1)[C@@H](C)O)C(C)C)C(C)C)C(=O)N[C@@H](C)C(=O)N[C@@H](CC(N)=O)C(=O)N[C@H](C(N)=O)[C@@H](C)O [Peptide 383] (H-H[Aib]HGS[αMeF]TSDVSK[αMeF]LDSQAAQD[αMeF]VK([AEEA-AEEA-γGlu-C18 diacid])[Aib]IANT-NH2; N-terminus assumed) | 2.3 | –
6 | CC[C@H](C)[C@H](NC(=O)[C@H](Cc1c[nH]c2ccccc12)NC(=O)[C@H](CCCCNC(=O)CCOCCOCCNC(=O)CCOCCOCCNC(=O)CC[C@H](NC(=O)CC[C@H](NC(=O)CCCCCCCCCCCCCCCCC(=O)O)C(=O)O)C(=O)O)NC(=O)[C@@H](NC(=O)[C@H](Cc1ccccc1)NC(=O)[C@H](CC(=O)O)NC(=O)[C@H](CCC(N)=O)NC(=O)[C@H](C)NC(=O)[C@H](C)NC(=O)[C@H](CCC(N)=O)NC(=O)[C@H](CO)NC(=O)[C@H](CC(=O)O)NC(=O)[C@H](CC(C)C)NC(=O)[C@](C)(Cc1ccccc1)NC(=O)[C@H](CCCCN)NC(=O)[C@H](CO)NC(=O)[C@@H](NC(=O)[C@H](CC(=O)O)NC(=O)[C@H](CO)NC(=O)[C@@H](NC(=O)[C@](C)(Cc1ccccc1)NC(=O)[C@H](CO)NC(=O)CNC(=O)[C@H](Cc1c[nH]cn1)NC(=O)C(C)(C)NC(=O)[C@@H](N)Cc1c[nH]cn1)[C@@H](C)O)C(C)C)C(C)C)C(=O)N[C@@H](C)C(=O)N[C@@H](CC(N)=O)C(=O)N[C@H](C(N)=O)[C@@H](C)O [Peptide 352] (H-H[Aib]HGS[αMeF]TSDVSK[αMeF]LDSQAAQDFVK([PEG2-PEG2-γGlu-γGlu-C18 diacid])WIANT-NH2) | 1.4 | –
7 | HSQGS(αMePhe)TSDVSKK((PEG)2-(PEG)2-γE-VE-Palmitoyl)13LDS(B-dimethylArg)AAQD(aMePhe)VE(Aib)LANT-amide [Peptide 400] | – | % Relative Potency Ratio (Table 10): 16.7
8 | CC[C@H](C)[C@H](NC(=O)C(C)(C)NC(=O)[C@H](CCCCNC(=O)COCCOCCNC(=O)COCCOCCNC(=O)CC[C@H](NC(=O)CCCCCCCCCCCCCCCCCCC(=O)O)C(=O)O)NC(=O)[C@@H](NC(=O)[C@H](Cc1ccccc1)NC(=O)[C@H](CC(=O)O)NC(=O)[C@H](CCC(N)=O)NC(=O)[C@H](C)NC(=O)[C@H](C)NC(=O)[C@H](CCCNC(=N)N)NC(=O)[C@H](CO)NC(=O)[C@H](CC(=O)O)NC(=O)[C@H](CC(C)C)NC(=O)[C@](C)(Cc1ccccc1)NC(=O)[C@H](CCCCN)NC(=O)[C@H](CO)NC(=O)[C@@H](NC(=O)[C@H](CC(=O)O)NC(=O)[C@H](CO)NC(=O)[C@@H](NC(=O)[C@](C)(Cc1ccccc1)NC(=O)[C@H](CO)NC(=O)CNC(=O)[C@H](Cc1c[nH]cn1)NC(=O)C(C)(C)NC(=O)[C@@H](N)Cc1c[nH]cn1)[C@@H](C)O)C(C)C)C(C)C)C(=O)N[C@@H](C)C(=O)N[C@@H](CC(N)=O)C(=O)N[C@H](C(N)=O)[C@@H](C)O [Peptide 369] (H-H[Aib]HGS[αMeF]TSDVSK[αMeF]LDSRAAQDFVK([AEEA-AEEA-γGlu-C20 diacid])[Aib]IANT-NH2) | 3.8 | –
9 | CC[C@H](C)[C@H](NC(=O)[C@H](Cc1c[nH]c2ccccc12)NC(=O)[C@H](CCCCNC(=O)COCCOCCNC(=O)COCCOCCNC(=O)CC[C@H](NC(=O)CC[C@H](NC(=O)CCCCCCCCCCCCCCCCC(=O)O)C(=O)O)C(=O)O)NC(=O)[C@@H](NC(=O)[C@H](Cc1ccccc1)NC(=O)[C@H](CC(=O)O)NC(=O)[C@H](CCC(N)=O)NC(=O)[C@H](C)NC(=O)[C@H](C)NC(=O)[C@H](CCCNC(=N)N)NC(=O)[C@H](CO)NC(=O)[C@H](CC(=O)O)NC(=O)[C@H](CC(C)C)NC(=O)[C@](C)(Cc1ccccc1)NC(=O)[C@H](CCCCN)NC(=O)[C@H](CO)NC(=O)[C@@H](NC(=O)[C@H](CC(=O)O)NC(=O)[C@H](CO)NC(=O)[C@@H](NC(=O)[C@](C)(Cc1ccccc1)NC(=O)[C@H](CO)NC(=O)CNC(=O)[C@H](Cc1c[nH]cn1)NC(=O)C(C)(C)NC(=O)[C@@H](N)Cc1c[nH]cn1)[C@@H](C)O)C(C)C)C(C)C)C(=O)N[C@@H](C)C(=O)N[C@@H](CC(N)=O)C(=O)N[C@H](C(=O)NCC(=O)NCC(N)=O)[C@@H](C)O [Peptide 364] (H-H[Aib]HGS[αMeF]TSDVSK[αMeF]LDSRAAQDFVK([AEEA-AEEA-γGlu-γGlu-C18 diacid])WIANTGG-NH2; N-terminus assumed) | 2.6 | –
